The source of these data is US6884810B2, “Benzimidazole derivatives” (Zeria Pharmaceutical Co., Ltd., priority 2001, dated 2005).

Assay [1] deals with gastric acid secreted under stimulation with histamine. The assay is described as follows: Gastric acid secretion inhibition action, histamine-stimulated, acute Fistula method. Type of assay: in vivo, Sprague-Dawley (SD) rats. To be noted: SD rats, administered in the duodenum, histamine 8 mg/kg/h, total acid discharge at 3, 4 and 5 hours, Probit method; for ED50: Rattus norvegicus. As for the experimental part:
(Gastric Acid Secretion Inhibition Action)
(1) Test Animals Employed were Sprague-Dawley (SD) Rats (7 Weeks Old, Male) Purchased from Charles River Japan, Inc. Before the Test, the Rats Were Fed for 5 Days or More.
Each test drug was suspended in, or dissolved in, 0.5% sodium carboxymethylcellulose solution, whereby a suspension or solution was prepared so as to attain 2.5 mL/kg.
(2) Measurement of Gastric Acid Secretion
The amount of gastric acid secreted under stimulation with histamine was measured on the rats fasted for 18 hours by use of the acute Fistula method as described by Hiramatsu et al. (Dig. Dis. Sci.,39, 689-697(1994)). Briefly, each rat was etherized lightly, and then a winged tubular needle filled with 3.8% citric acid solution was indwelled in the tail vein of the rat. The abdomen of the rat was opened, and the pyloric part of the stomach was ligated. Subsequently, a small hole was made in the duodenum, and the abdomen of the rat was closed with a feeding tube filled with saline indwelled. The inside of the stomach was washed with saline, a polyethylene-made Fistula tube (inner diameter: 4 mm) was set in the anterior stomach, and the cut portion of the anterior stomach was ligated and secured. The stomach and the duodenum were returned to the abdominal cavity, with the Fistula tube and the feeding tube exposed outside. The rat was placed in a Ballman cage II. Histamine was continuously administered through the winged injection needle which had been indwelled in the tail vein in advance (8 mg/kg/h, 1.38 mL/h). 15 Minutes thereafter, gastric juice of the rat was collected. Subsequently, collection of gastric juice was performed every one hour. Each time, the amount of the collected gastric juice was recorded, followed by titration with NaOH (0.1 mol/L) up to the end point pH 7.0. From the volume consumed for titration, acidity was calculated. The acid discharge amount was calculated as a product of the amount of the gastric juice and the acidity. Before starting the test, the rats were grouped so that the intra-group total amount of the gastric juice samples initially collected was the same between groups. Thereafter, each test drug was administered (2.5 mL/kg) in the duodenum through a feeding tube which had been attached to the duodenum in advance. To each rat of a control group, 0.5% Na-CMC solution was administered.
(3) Analysis of the Results
The data as obtained above are shown by way of mean±standard error. Total amount of acid discharge was obtained through summation of the amounts of acid discharge at three points in time; i.e., 3, 4 and 5 hours after initial collection of gastric juice. Percent inhibition of each group was computed from the total acid discharge amount of the control group and that of each group. On the basis of the percent inhibition calculated for each group, 50% effective dose (ED50) was computed by use of the Probit method.

The next assay concerns the target T1, H+/K+-ATPase (Sus scrofa, UniProt P19156).
T1 construct: The mucous membrane layer was homogenized in Tris-HCl buffer; from tissue; host or cells: pig stomach body, mucous membrane layer, membrane fraction from a sucrose interface
The assay is described as follows: Proton pump inhibitory action: activity of inhibiting H+/K+-ATPase (at pH 1). Type of assay: biochemical. To be noted: pig gastric mucosa enzyme sample; test compounds pretreated in hydrochloric acid solution pH 1 (50% DMSO) for 15 minutes; read-out: Proton pump inhibitory action [IC50 (μmol/L)]. The source says:
(Proton Pump Inhibitory Action)
(1) Preparation of Enzyme Sample (H^+/K^+-ATPase)
The stomach body removed from a pig, which had been stored in a frozen state, was separated into a muscle layer and a mucous membrane layer. The mucous membrane layer was homogenized in Tris-HCl buffer (20 mmol/L, pH 7.4) having a volume 5 times that of the layer and containing sucrose (0.25 mol/L) and EGTA (1 mmol/L) (hereinafter the mixture is referred to as Tris-HCl buffer) in a mixer. The homogenate was subjected to centrifugation (9,000×g, 30 minutes). The supernatant was softly placed on 8 mL Tris-HCl buffer (20 mmol/L, pH 7.4) containing 30% sucrose and 1 mmol/L EGTA. The mixture was subjected to ultracentrifugation at 100,000×g for 60 minutes. The interface fraction obtained through centrifugation was subjected to centrifugation (113,000×g, 60 minutes) twice. Pellet was suspended in Tris-HCl buffer, and the suspension was homogenized at low speed. The resultant homogenate served as an enzyme sample of interest and was stored at −80° C. The protein content of the sample was quantitated through use of a BCA protein assay reagent in accordance with a method described by Smith et al. (Anal. Biochem., 150, 76-85 (1985)). All these steps were performed under cooling with an ice bath.
(2) Activity of inhibiting H^+/K^+-ATPase (at pH 1)
Activity of inhibiting H^+/K^+-ATPase was measured in accordance with a method described in Biochem. Biophys. Res. Commun., 40, 880-886 (1970). Specifically, ATP was employed as a substrate, and inorganic phosphate, which is a resultant degradation product, was quantitated. In consideration of the solubility of test compounds, the test compounds were preliminarily treated with a hydrochloric acid solution (containing 50% DMSO, 1×10^−1 mol/L, pH 1). Each of the test compounds having different concentrations was added to the hydrochloric acid solution to thereby yield a 1,000—fold dilution, and thereafter, the diluted compound was allowed to stand for 15 minutes at room temperature. After these preliminary remedies, a 10 μL solution that had undergone the above preliminary remedies were added to 840 μL Tris-acetate buffer (40 mmol/L, pH 7.5, containing 2 mmol/L MgCl2, may be referred to as TE buffer) containing or not containing 20 mmol/L KCl. Subsequently, a 100 μL enzyme solution (5 μg protein) diluted with the TE buffer was added. Incubation was performed for 30 minutes at 37° C. Thereafter, a 50 μL ATP solution (40 mmol/L) which was dissolved in TE buffer not containing KCl was added to initiate enzyme reaction (total volume: 1 mL, ATP final concentration: 2 mmol/L). Incubation was performed for 30 minutes at 37° C. Subsequently, ice-cold 12% trichloroacetic acid (2 mL) was added, to thereby stop the enzyme reaction. A molybdenum reagent (1 mL, 3.75% ammonium molybdate/1.5 mol/L sulfuric acid) and butyl acetate (5 mL) were added, followed by mixing under vigorous shaking for 5 minutes. The absorption of the butyl acetate layer was measured at 310 nm. A standard curve was determined on the basis of absorption obtained through the similar procedure by use of KH2PO4 at different concentrations dissolved in 8% TCA solution, and inorganic phosphate content was calculated. Samples to be measured were prepared in duplicate. The measurements were averaged, and residual activity was obtained from the difference between the inorganic phosphate content as determined in a sample containing KCl and that as determined in a sample not containing KCl. Percentage inhibition activity was calculated with respect to the activity obtained from a control sample (DMSO), which was considered 100%. As the inhibitory potency of each test compound, IC50 values were computed and shown. All the test compounds were dissolved in dimethyl sulfoxide immediately before use.

T1 sequence (P19156 2-1034 limits assumed): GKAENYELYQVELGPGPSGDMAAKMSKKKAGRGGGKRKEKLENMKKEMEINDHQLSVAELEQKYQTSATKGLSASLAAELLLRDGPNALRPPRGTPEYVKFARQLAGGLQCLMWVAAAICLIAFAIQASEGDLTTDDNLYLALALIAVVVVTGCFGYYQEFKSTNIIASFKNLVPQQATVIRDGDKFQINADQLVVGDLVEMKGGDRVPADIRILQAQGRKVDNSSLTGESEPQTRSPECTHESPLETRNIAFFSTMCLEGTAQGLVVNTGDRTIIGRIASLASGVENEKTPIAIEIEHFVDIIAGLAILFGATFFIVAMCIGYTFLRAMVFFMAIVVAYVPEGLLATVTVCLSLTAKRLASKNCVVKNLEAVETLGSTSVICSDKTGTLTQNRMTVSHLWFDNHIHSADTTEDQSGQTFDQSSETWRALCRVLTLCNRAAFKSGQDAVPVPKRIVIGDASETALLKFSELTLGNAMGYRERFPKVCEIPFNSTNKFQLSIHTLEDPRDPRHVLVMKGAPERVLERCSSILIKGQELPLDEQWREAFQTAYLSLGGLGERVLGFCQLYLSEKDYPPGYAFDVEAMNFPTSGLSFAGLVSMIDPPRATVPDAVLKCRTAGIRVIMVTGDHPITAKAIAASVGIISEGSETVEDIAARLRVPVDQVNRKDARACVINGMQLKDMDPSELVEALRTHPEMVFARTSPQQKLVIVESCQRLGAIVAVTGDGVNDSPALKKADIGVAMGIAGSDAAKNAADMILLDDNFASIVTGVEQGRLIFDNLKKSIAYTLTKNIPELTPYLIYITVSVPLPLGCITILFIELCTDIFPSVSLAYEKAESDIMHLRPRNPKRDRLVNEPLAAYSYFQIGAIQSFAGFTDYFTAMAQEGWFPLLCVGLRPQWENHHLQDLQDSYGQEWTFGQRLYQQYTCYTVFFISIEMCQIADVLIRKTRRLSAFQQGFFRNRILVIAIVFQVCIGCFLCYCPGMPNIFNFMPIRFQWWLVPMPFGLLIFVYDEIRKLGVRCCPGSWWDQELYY
T1 sequence (P18434 whole entry partner): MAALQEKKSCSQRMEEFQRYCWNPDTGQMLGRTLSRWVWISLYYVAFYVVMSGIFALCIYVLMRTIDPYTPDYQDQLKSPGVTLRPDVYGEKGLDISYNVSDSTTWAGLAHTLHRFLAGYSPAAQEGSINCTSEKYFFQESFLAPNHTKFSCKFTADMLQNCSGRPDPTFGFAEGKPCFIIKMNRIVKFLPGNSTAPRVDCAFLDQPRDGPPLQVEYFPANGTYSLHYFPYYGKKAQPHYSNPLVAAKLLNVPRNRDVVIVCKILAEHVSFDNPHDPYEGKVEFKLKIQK

Regarding `COc1c(OCCOCC(F)(F)F)ccnc1C[S+]([O-])c1nc2ccccc2[nH]1` (single isomer, unassigned; (+)) [Example 3(2), (+)-2-{3-methoxy-4-[2-(2,2,2-trifluoroethoxy)ethoxy]pyridin-2-yl-methylsulfinyl}-1H-benzimidazole], the 50% effect level in assay [1] (ED50) was put at a dose of 2.2 mg/kg. For the same compound, the IC50 at H+/K+-ATPase was 4.05 µmol/L.

For the compound `COc1c(OCCCC(F)(F)F)ccnc1C[S+]([O-])c1nc2ccccc2[nH]1` (single isomer, unassigned; (-)) [Example 6(1), (−)-2-[3-methoxy-4-(4,4,4-trifluorobutoxy)pyridin-2-yl-methanesulfinyl]-1H-benzimidazole], the “Gastric-acid secretion inhibition action [ED50 (mg/kg)]” value in assay [1] stood at 1.4 mg/kg. For the same compound, the IC50 at H+/K+-ATPase was found to be 2.5 µmol/L.

Compound `[O-][S+](Cc1cc(OCCCC(F)(F)F)ccn1)c1nc2ccccc2[nH]1` (single isomer, unassigned; (-)) [Example 10(2), (−)-2-[4-(4,4,4-trifluorobutoxy)pyridin-2-yl-methanesulfinyl]-1H-benzimidazole] yielded an ED50 in assay [1] of 0.97 mg/kg. Further, the IC50 on H+/K+-ATPase came out at 3.03 µmol/L.

As for `[O-][S+](Cc1cc(OCCOCC(F)(F)F)ccn1)c1nc2ccccc2[nH]1` (single isomer, unassigned; (-)) [Example 13(3), (−)-2-{4-[2-(2,2,2-trifluoroethoxy)ethoxy]pyridin-2-yl-methanesulfinyl}-1H-benzimidazole], in assay [1], it took a dose of 0.59 mg/kg to reach the 50% effect level (ED50). The IC50 at H+/K+-ATPase amounted to 7.37 µmol/L.

As to `COc1c(OCCCC(F)(F)F)ccnc1C[S+]([O-])c1nc2ccccc2[nH]1` (stereo not drawn) [Example 1(2), 2-[3-methoxy-4-(4,4,4-trifluorobutoxy)pyridin-2-yl-methylsulfinyl]-1H-benzimidazole], the 50% effective dose (ED50) in assay [1] turned out to be 1.3 mg/kg. At H+/K+-ATPase, the IC50 turned out to be 4.16 µmol/L.

`COc1c(OCCOCC(F)(F)F)ccnc1C[S+]([O-])c1nc2ccccc2[nH]1` (stereo not drawn) [Example 2(2), 2-{3-methoxy-4-[2-(2,2,2-trifluoroethoxy)ethoxy]pyridin-2-yl-methylsulfinyl}-1H-benzimidazole] came in with an ED50 in assay [1] of 1.9 mg/kg. The IC50 on H+/K+-ATPase was determined as 3.37 µmol/L.

In assay [1], `[O-][S+](Cc1cc(OCCCC(F)(F)F)ccn1)c1nc2ccccc2[nH]1` (stereo not drawn) [Example 9(3), 2-[4-(4,4,4-trifluorobutoxy)pyridin-2-yl-methanesulfinyl]-1H-benzimidazole] came in with an ED50 of 0.32 mg/kg. Also, on H+/K+-ATPase, the IC50 came to 3.56 µmol/L.

Take `COc1ccc2nc([S@@+]([O-])Cc3ncc(C)c(OC)c3C)[nH]c2c1` [esomeprazole, reference compound]: the ED50 in assay [1] stood at 2.9 mg/kg. For the same compound, the IC50 at H+/K+-ATPase turned out to be 2.06 µmol/L.

`Cc1c(OCC(F)(F)F)ccnc1C[S+]([O-])c1nc2ccccc2[nH]1` (stereo not drawn) [lansoprazole, reference compound] had a median effective dose (ED50) in assay [1] of 1.1 mg/kg. The IC50 on H+/K+-ATPase was determined as 1.61 µmol/L.

Compound `COc1ccc2[nH]c([S+]([O-])Cc3ncc(C)c(OC)c3C)nc2c1` (stereo not drawn) [omeprazole, reference compound] displayed an ED50 in assay [1] of 3.6 mg/kg. For the same compound, on H+/K+-ATPase, the IC50 worked out at 1.01 µmol/L.

`COc1ccnc(C[S+]([O-])c2nc3ccc(OC(F)F)cc3[nH]2)c1OC` (stereo not drawn) [pantoprazole, reference compound] came in with an ED50 in assay [1] of 0.34 mg/kg. On H+/K+-ATPase, the IC50 came to 5.46 µmol/L.

`COCCCOc1ccnc(C[S+]([O-])c2nc3ccccc3[nH]2)c1C` (stereo not drawn) [rabeprazole, reference compound] returned an ED50 in assay [1] of 2.5 mg/kg. On H+/K+-ATPase, the IC50 was 1.61 µmol/L.
